Structures can show the parent of a compound that is named as a salt. Where two headings read alike, the source gives them in different places.

Consider 27 compounds from patent US20140179681A1, “METHODS AND COMPOSITIONS OF TARGETED DRUG DEVELOPMENT” (priority 2010, published 2014).

In one experiment the target is T1, EGFR (Homo sapiens, UniProt P00533).
T1 construct: host or cells: A431
In words: EGFR in-cell Western (ICW) screening protocol (EGFR inhibition assay). In kind it is cell-based. On the set-up: ICW 1 / ICW 2 / ICW Avg: unit not given here. Particulars: for ICW Avg / ICW 1 / ICW 2: ICW assay; for ICW Avg: average of runs 1 and 2; for ICW 1: run 1; for ICW 2: run 2; for ICW assay: Table 10, % Inhibition of EGF dependent EGFR phosphorylation in A431 cells, compound 125 μM in assay. The method, boiled down: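 In-cell Western read-out: fixed A431 cells were co-stained for total EGFR and phospho-EGFR (Tyr1173; some runs Tyr1045). Before fixation, cells were serum-starved for 2 h, exposed to compound for 4 h, then given EGF for 10 min, usually at 10 ng/ml final (6.6 or 12.5 ng/ml in some runs).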

Experiment [1] has as its system epithelial carcinoma A431 cell line. In words: MTT Cell Proliferation Assay, A431 cells. Format: cell-based. Particulars: for MTT Assay IC50(A431/MDBK): ratio in parentheses: ratio MDBK IC50 / A431 IC50 (selectivity). The method, boiled down:
(§1)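 Each concentration ran in quadruplicate across duplicate plates, with compounds serially diluted in DMSO and delivered at 0.5% DMSO in 0.5% FBS medium for 3 days.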

For the next experiment, the system named is MDBK line. In words: MTT Cell Proliferation Assay, MDBK cells. In kind it is cell-based, bovine. The method, boiled down: as §1
The mark [2] stands for this setting: Homo sapiens, A-431, first value of 'a/b (c)', taken as A431 cells, read-out: MTT Screen, first value of cell.
Where [3] appears, read: Bos taurus, MDBK, second value of 'a/b (c)', taken as MDBK cells, read-out: MTT Screen, second value of cell.
The mark [4] stands for this setting: Homo sapiens, A-431, A431 cells, first value of cell, read-out: MTT Assay IC50(A431/MDBK): A431.
Setting [5] is: Bos taurus, MDBK, MDBK cells, second value of cell, read-out: MTT Assay IC50(A431/MDBK): MDBK.
The mark [6] stands for this setting: A431 cells, first value of cell, read-out: MTT Assay IC50(A431/MDBK): A431.
Setting [7] is: MDBK cells, second value of cell, read-out: MTT Assay IC50(A431/MDBK): MDBK.
[8] abbreviates: Homo sapiens, A-431, 72 h, Table 10, first of x/y(ratio): A431, three day treatment, unit not printed (doses in μM), read-out: MTT assay (first value).
The mark [9] stands for this setting: Bos taurus, MDBK, 72 h, Table 10, second of x/y(ratio): MDBK, three day treatment, unit not printed (doses in μM), read-out: MTT assay (second value).
The mark [10] stands for this setting: first value of 'a/b (c)', taken as A431 cells, read-out: MTT Screen, first value of cell.
[11] abbreviates: second value of 'a/b (c)', taken as MDBK cells, read-out: MTT Screen, second value of cell.

T1 sequence (P00533 25-1210): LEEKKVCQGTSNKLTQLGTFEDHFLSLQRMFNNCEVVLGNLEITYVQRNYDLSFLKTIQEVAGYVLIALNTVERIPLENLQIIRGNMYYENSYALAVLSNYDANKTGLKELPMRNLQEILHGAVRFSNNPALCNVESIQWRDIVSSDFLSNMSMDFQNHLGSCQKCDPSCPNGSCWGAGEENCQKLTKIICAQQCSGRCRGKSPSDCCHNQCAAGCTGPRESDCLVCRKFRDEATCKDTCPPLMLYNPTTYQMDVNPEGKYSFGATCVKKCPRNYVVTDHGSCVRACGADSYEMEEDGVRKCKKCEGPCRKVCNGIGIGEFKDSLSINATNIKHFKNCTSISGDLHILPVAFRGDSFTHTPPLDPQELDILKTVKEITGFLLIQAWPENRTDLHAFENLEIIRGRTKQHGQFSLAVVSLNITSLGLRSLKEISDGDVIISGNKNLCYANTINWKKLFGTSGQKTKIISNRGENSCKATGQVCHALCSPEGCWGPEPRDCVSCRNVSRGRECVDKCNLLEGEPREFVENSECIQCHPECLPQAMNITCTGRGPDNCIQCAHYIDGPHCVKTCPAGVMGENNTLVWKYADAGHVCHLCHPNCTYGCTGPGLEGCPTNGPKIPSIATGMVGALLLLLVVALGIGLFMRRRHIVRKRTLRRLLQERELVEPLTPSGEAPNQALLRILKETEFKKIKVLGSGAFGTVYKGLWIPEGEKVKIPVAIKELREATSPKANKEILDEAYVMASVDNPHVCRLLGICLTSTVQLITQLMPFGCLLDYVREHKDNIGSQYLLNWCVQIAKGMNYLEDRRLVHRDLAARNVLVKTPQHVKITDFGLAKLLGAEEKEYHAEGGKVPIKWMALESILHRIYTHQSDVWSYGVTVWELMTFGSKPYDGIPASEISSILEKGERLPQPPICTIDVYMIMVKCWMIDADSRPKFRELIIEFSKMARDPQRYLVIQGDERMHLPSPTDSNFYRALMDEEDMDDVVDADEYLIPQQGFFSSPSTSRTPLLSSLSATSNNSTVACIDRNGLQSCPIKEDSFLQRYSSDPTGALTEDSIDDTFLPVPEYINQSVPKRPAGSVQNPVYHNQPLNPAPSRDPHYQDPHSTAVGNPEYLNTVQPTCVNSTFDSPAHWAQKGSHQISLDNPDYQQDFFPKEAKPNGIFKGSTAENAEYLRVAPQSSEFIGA

Turning to `C=CCN(CC=C)S(=O)(=O)c1ccc(NC(=S)NC(=O)/C=C/c2ccc(OC)cc2)cc1` [AD4-12016], the “ICW Screen (ICW Inhibition)” value against EGFR worked out at 34.399. Moreover, the IC50 in experiment [1] (setting [2]) was found to be 15.8 µM; in the experiment with MDBK line (setting [3]), 23.5 µM.
Consider `CCOc1ccc2nc(Nc3nc(=O)c(Cc4ccc(C)cc4)c(C)[nH]3)nc(C)c2c1` [compound 11442], for which, at EGFR, the “ICW Avg” value is reported as 37.95, the “ICW 1” value was determined as 50.14 and the “ICW 2” value is on record as 25.76. Also, in experiment [1] (setting [4]), the IC50 was 15.6 µM. Moreover, the IC50 in the experiment on MDBK line (setting [5]) came out at 118 µM.
`Cc1cc(C)cc(NS(=O)(=O)c2ccc(NC(=S)NC(=O)CC(C)C)cc2)c1` [AD4-12017]: at EGFR, the “ICW Screen (ICW Inhibition)” value came to 27.373. For the same compound, the IC50 in experiment [1] (setting [2]) is 6.53 µM; in the experiment with MDBK line (setting [3]), 5.93 µM.
Turning to `CCc1ccc2nc(Nc3nc(C)c4c(n3)CCCC4)nc(C)c2c1` [compound 12213], at EGFR, the “ICW Avg” value is given as 28.01, the “ICW 1” value stood at 28.35 and the “ICW 2” value is 27.66. Further, the IC50 in experiment [1] (setting [4]) stood at 39.1 µM. Also, in experiment [1], the “MTT Assay IC50(A431/MDBK): ratio in parentheses” value (“MTT Assay IC50(A431/MDBK): ratio” for short) turned out to be 0.99. Moreover, the IC50 with MDBK line (setting [5]) is 38.6 µM.
Turning to `CCOC(=O)c1c(N)nc(Nc2nc(C)c3cc(C)ccc3n2)nc1-c1ccccc1` [compound 12681], at EGFR, the “ICW Avg” value worked out at 89.48, the “ICW 1” value is reported as 89.93 and the “ICW 2” value turned out to be 89.02. Moreover, the IC50 in experiment [1] (setting [6]) worked out at 15.6 µM. In experiment [1], the “MTT Assay IC50(A431/MDBK): ratio” value amounted to 1.63. The IC50 with MDBK line (setting [7]) is 25.4 µM.
Take `COc1ccc(C)cc1NC(=S)Nc1ccc(S(=O)(=O)Nc2cc(Cl)cc(Cl)c2)cc1` [AD4-12499]: the ICW assay at EGFR came out at 26.0767. The IC50 in experiment [1] (setting [8]) stood at 6.99 µM; in the experiment with MDBK line (setting [9]), 6.58 µM.
`CCN(c1ccccc1)S(=O)(=O)c1ccc(NC(=S)NC(=O)Cc2ccccc2)cc1` [AD4-11412]: the “ICW Screen (ICW Inhibition)” value on EGFR came to 31.958. For the same compound, the IC50 in experiment [1] (setting [2]) was determined as 11.4 µM; in the experiment with MDBK line (setting [3]), 20 µM.
In the case of `COc1ccc(NC(=S)Nc2ccc(S(=O)(=O)Nc3ccc(Cl)cc3)cc2)cc1OC` [AD4-12525], the ICW assay against EGFR worked out at 34.1311. Moreover, the IC50 amounted to 14.8 µM in experiment [1] (setting [8]) and 12.2 µM with MDBK line (setting [9]).
Take `O=C(NC(=S)Nc1ccc(S(=O)(=O)NCCc2ccccc2)cc1)C1CCCC1` [AD4-10609]: the “ICW Screen (ICW Inhibition)” value on EGFR is 43.828. Besides, the IC50 in experiment [1] (setting [2]) turned out to be 6.84 µM; in the experiment with MDBK line (setting [3]) it was 6.34 µM.
For `Cc1ccnc(Nc2nc(-c3ccccc3)c3cc(Cl)ccc3n2)n1` [compound 11455], at EGFR, the “ICW Avg” value worked out at 37.35, the “ICW 1” value was found to be 48.80 and the “ICW 2” value is 25.90. Further, the IC50 in experiment [1] (setting [4]) stood at 10.8 µM. Moreover, in experiment [1], the “MTT Assay IC50(A431/MDBK): ratio” value is recorded as 2.16. Moreover, the IC50 in the experiment on MDBK line (setting [5]) is 23.4 µM.
For the compound `O=S(=O)(Nc1cc(Cl)cc(Cl)c1)c1ccc(NC(=S)Nc2cccc(C(F)(F)F)c2)cc1` [AD4-12509], at EGFR, the ICW assay is 140.975. Further, the IC50 in experiment [1] (setting [8]) amounted to 5.49 µM; in the experiment with MDBK line (setting [9]) it was 5.24 µM.
On the same counts, the results for `CCOc1ccccc1NC(=S)Nc1ccc(S(=O)(=O)Nc2ccc(Cl)c(Cl)c2)cc1` [AD4-12443] are 44.7896, 6.71 µM and 6.91 µM.
Turning to `COc1ccc(NS(=O)(=O)c2ccc(NC(=S)NC(=O)C3CCCC3)cc2)cc1` [AD4-12119], the “ICW Screen (ICW Inhibition)” value against EGFR came to 55.94. For the same compound, the IC50 in experiment [1] (setting [2]) was determined as 18.6 µM; in the experiment with MDBK line (setting [3]), 14.6 µM.
`COCc1cc(=O)nc(Nc2nc(C)c3cc(C)cc(C)c3n2)[nH]1` [12644 + TFA]: at EGFR, the “ICW Avg” value is listed as 25.06, the “ICW 1” value is listed as 16.45 and the “ICW 2” value came to 33.67. Besides, the IC50 in experiment [1] (setting [6]) is 46.9 µM. The “MTT Assay IC50(A431/MDBK): ratio” value in experiment [1] is 0.66. Besides, the IC50 in the experiment with MDBK line (setting [7]) came to 30.9 µM.
With `Cc1cc(C(F)(F)F)nc(Nc2nc(C)c3ccccc3n2)n1` [compound 11457], on EGFR, the “ICW Avg” value amounted to 28.58, the “ICW 1” value stood at 38.67 and the “ICW 2” value came to 18.48. Also, the IC50 in experiment [1] (setting [4]) amounted to 27.4 µM. Also, the “MTT Assay IC50(A431/MDBK): ratio” value in experiment [1] came out at 1.79. The IC50 in the experiment with MDBK line (setting [5]) is 49 µM.
On to `CC(C)(C)C(=O)NC(=S)Nc1ccc(S(=O)(=O)NCCc2ccccc2)cc1` [AD4-10313], for which the “ICW Screen (ICW Inhibition)” value on EGFR was determined as 30.774. Also, the values for the IC50 (in experiment [1] (setting [10]); in the experiment with MDBK line (setting [11])) were 20.9 µM and 17.6 µM, respectively.
Turning to `CC(C)NS(=O)(=O)c1ccc(NC(=S)NC(=O)CCCCCOc2ccc(Cl)cc2Cl)cc1` [AD4-11538], at EGFR, the “ICW Screen (ICW Inhibition)” value came out at 34.978. The IC50 in experiment [1] (setting [2]) is 5.48 µM; with MDBK line (setting [3]) it was 5.19 µM.
As to `CCCc1c(C)nc(Nc2nc(C)c3cccc(OC)c3n2)[nH]c1=O` [11773 + TFA], at EGFR, the “ICW Avg” value is reported as 33.52, the “ICW 1” value was found to be 43.74 and the “ICW 2” value was 23.30. Also, the IC50 in experiment [1] (setting [4]) is 39.4 µM. Moreover, the “MTT Assay IC50(A431/MDBK): ratio” value in experiment [1] was 0.53. Also, in the experiment on MDBK line (setting [5]), the IC50 is 21 µM.
`CC1CCc2cc(F)ccc2N1S(=O)(=O)c1ccc(NC(=S)Nc2ccc3c(c2)OCO3)cc1` (centres unmarked) [AD4-12828] returned an ICW assay against EGFR of 32.6456. Moreover, the IC50 in experiment [1] (setting [8]) is 26.6 µM; in the experiment on MDBK line (setting [9]), 63.4 µM.
For `Cc1cc2nc(Nc3ncc4c(n3)CC(c3cccs3)CC4=O)nc(C)c2cc1C` (centres unmarked) [11681 + TFA], on EGFR, the “ICW Avg” value was found to be 29.86, the “ICW 1” value was 30.46 and the “ICW 2” value came to 29.26. Also, the IC50 in experiment [1] (setting [4]) worked out at 5.47 µM. The “MTT Assay IC50(A431/MDBK): ratio” value in experiment [1] is recorded as 0.75. Moreover, the IC50 in the experiment on MDBK line (setting [5]) came to 4.08 µM.
As to `CC(=O)c1cccc(NC(=S)Nc2ccc(NS(=O)(=O)c3ccc(C)cc3)cc2)c1` [AD4-10693], on EGFR, the ICW assay worked out at 26.8206. The IC50 was 48.2 µM in experiment [1] (setting [8]) and 35.9 µM in the experiment with MDBK line (setting [9]).
On to `Cc1cc(C)nc(NS(=O)(=O)c2ccc(NC(=S)NC(=O)/C=C/c3ccc(Cl)cc3)cc2)n1` [AD4-11648], for which, on EGFR, the “ICW Screen (ICW Inhibition)” value is given as 38.362. Besides, the IC50 in experiment [1] (setting [2]) was 46.7 µM; with MDBK line (setting [3]), 45.1 µM.
For the compound `CC(C)c1ccc(NC(=S)Nc2ccc(S(=O)(=O)Nc3ccc(Cl)cc3)cc2)cc1` [AD4-12503], the ICW assay on EGFR amounted to 79.4624. For the same compound, the IC50 in experiment [1] (setting [8]) stood at 4.05 µM; in the experiment on MDBK line (setting [9]) it was 5.43 µM.
Regarding `O=C(Cc1ccccc1)NC(=S)Nc1ccc(S(=O)(=O)Nc2ccccc2)cc1` [AD4-11416], the “ICW Screen (ICW Inhibition)” value against EGFR stood at 53.517. Besides, the figures for the IC50 (in experiment [1] (setting [10]); with MDBK line (setting [11])) were 15.4 µM and 13.5 µM, respectively.
As to `CCOc1ccc(NS(=O)(=O)c2ccc(NC(=S)NC(=O)CC)cc2)cc1` [AD4-11409], the “ICW Screen (ICW Inhibition)” value at EGFR turned out to be 74.94. For the same compound, the results for the IC50 (in experiment [1] (setting [2]); with MDBK line (setting [3])) were 17.2 µM and 11.7 µM, respectively.
For `CCCc1c(C)nc(Nc2nc(C)c3cccc(C)c3n2)[nH]c1=O` [compound 12742], on EGFR, the “ICW Avg” value stood at 49.20, the “ICW 1” value is on record as 33.49 and the “ICW 2” value is on record as 64.92. For the same compound, the IC50 in experiment [1] (setting [6]) stood at 19.6 µM. The “MTT Assay IC50(A431/MDBK): ratio” value in experiment [1] is 0.97. Further, the IC50 with MDBK line (setting [7]) came out at 18.9 µM.
With `CC1CCN(S(=O)(=O)c2ccc(NC(=S)NC(=O)C(C)C)cc2)CC1` [AD4-11977], the “ICW Screen (ICW Inhibition)” value against EGFR was determined as 33.588. The IC50 in experiment [1] (setting [2]) amounted to 32.5 µM. Also, in the experiment with MDBK line (second value of 'a/b (c)', taken as MDBK cells), the “MTT Screen, second value of cell” value is given as “non- conver- gent”.
